# Assay: solubility in water
# Format: physicochemical
# Text: The compound of formula (XIII) was made and analyzed.
smiles,measurement,value
N[C@@H](COC(=O)CCC(=O)OCC(O)CO)C(=O)O (stereo partly shown) [formula (XIII)],solubility,1200 mg/mL
